Values quoted from earlier work in PubChem BioAssay AID1259409 (Chemical Carcinogenesis Research Information System (CCRIS), 2018).

Tested on: rodent chemically induced tumor inhibition, incidence and multiplicity
Test: CCRIS tumor inhibitor studies
Settings: Dose [Inhibitor]: 0, Route [Inhibitor]: ORAL, Promoter: NONE USED

Question: What does the source list for `CC(C(=O)O)c1cccc(C(=O)c2ccccc2)c1` (stereo unspecified)?
Answer: tumour outcome (control, treated, inhibition, significance) (Carcinogen: AZOXYMETHANE, 25843-45-2, 100 PPM IN DIET BEGINNING 1 WK PRIOR TO CARCINOGEN TREATMENT FOR DURATION OF STUDY (STUDY DURATION: 54 WK), Species: RAT, Strain/Sex: F344/MALE, Target Tissue: Type of Lesion: COLON: ADENOCARCINOMA, Dose [Carcinogen]: 15 MG/KG/BW 1/WK FOR 2 WK): 58%, 56%, 3%, not calculated; tumour outcome (control, treated, inhibition, significance) (Carcinogen: AZOXYMETHANE, 25843-45-2, 100 PPM IN DIET BEGINNING 1 WK TO CARCINOGEN TREATMENT FOR DURATION OF STUDY (STUDY DURATION: 54 WK), Species: RAT, Strain/Sex: F344/MALE, Target Tissue: Type of Lesion: COLON: ADENOMA, Dose [Carcinogen]: 15 MG/KG/BW 1/WK FOR 2 WK): 6%, 3%, 50%, not calculated; tumour outcome (control, treated, inhibition, significance) (Carcinogen: AZOXYMETHANE, 25843-45-2, 200 PPM IN DIET BEGINNING 1 WK PRIOR TO CARCINOGEN TREATMENT FOR DURATION OF STUDY (STUDY DURATION: 54 WK), Species: RAT, Strain/Sex: F344/MALE, Target Tissue: Type of Lesion: COLON: ADENOCARCINOMA, Dose [Carcinogen]: 15 MG/KG/BW 1/WK FOR 2 WK): 58%, 28%, 52%, p<0.01; tumour outcome (control, treated, inhibition, significance) (Carcinogen: AZOXYMETHANE, 25843-45-2, 200 PPM IN DIET BEGINNING 1 WK PRIOR TO CARCINOGEN TREATMENT FOR DURATION OF STUDY (STUDY DURATION: 54 WK), Species: RAT, Strain/Sex: F344/MALE, Target Tissue: Type of Lesion: COLON: ADENOMA, Dose [Carcinogen]: 15 MG/KG/BW 1/WK FOR 2 WK): 6%, 6%, 0%, not significant; tumour outcome (control, treated, inhibition, significance) (Carcinogen: N-BUTYL-N-(4-HYDROXYBUTYL)NITROSAMINE, 3817-11-6, 40 MG/KG DIET FOR 24 WK BEGINNING 1 WK PRIOR TO CARCINOGEN TREATMENT (STUDY DURATION: 24 WK), Species: MOUSE, Strain/Sex: BDF/MALE, Target Tissue: Type of Lesion: URINARY BLADDER: TRANSITIONAL CELL CARCINOMA, Dose [Carcinogen]: 7.5 MG 1/WK FOR 8 WK): 22/75 (29%), 5/73 (7%), 76%, p<0.01; tumour outcome (control, treated, inhibition, significance) (Carcinogen: N-BUTYL-N-(4-HYDROXYBUTYL)NITROSAMINE, 3817-11-6, 80 MG/KG DIET FOR 24 WK BEGINNING 1 WK PRIOR TO CARCINOGEN TREATMENT (STUDY DURATION: 24 WK), Species: MOUSE, Strain/Sex: BDF/MALE, Target Tissue: Type of Lesion: URINARY BLADDER: TRANSITIONAL CELL CARCINOMA, Dose [Carcinogen]: 7.5 MG 1/WK FOR 8 WK): 22/75 (29%), 4/72 (6%), 79%, p<0.01
